The text below walks through data of US20240116985A1, “STAPLED PEPTIDES AND METHODS THEREOF” (priority 2020, published 2024).

Where two headings read alike, the source gives them in different places.

Data set [1] concerns the target T1, full-length beta-Catenin (Uniprot ID P35222) (Homo sapiens, UniProt P35222).
T1 construct: 10 nM full-length beta-Catenin (Uniprot ID P35222)
T1 sequence (P35222 1-781): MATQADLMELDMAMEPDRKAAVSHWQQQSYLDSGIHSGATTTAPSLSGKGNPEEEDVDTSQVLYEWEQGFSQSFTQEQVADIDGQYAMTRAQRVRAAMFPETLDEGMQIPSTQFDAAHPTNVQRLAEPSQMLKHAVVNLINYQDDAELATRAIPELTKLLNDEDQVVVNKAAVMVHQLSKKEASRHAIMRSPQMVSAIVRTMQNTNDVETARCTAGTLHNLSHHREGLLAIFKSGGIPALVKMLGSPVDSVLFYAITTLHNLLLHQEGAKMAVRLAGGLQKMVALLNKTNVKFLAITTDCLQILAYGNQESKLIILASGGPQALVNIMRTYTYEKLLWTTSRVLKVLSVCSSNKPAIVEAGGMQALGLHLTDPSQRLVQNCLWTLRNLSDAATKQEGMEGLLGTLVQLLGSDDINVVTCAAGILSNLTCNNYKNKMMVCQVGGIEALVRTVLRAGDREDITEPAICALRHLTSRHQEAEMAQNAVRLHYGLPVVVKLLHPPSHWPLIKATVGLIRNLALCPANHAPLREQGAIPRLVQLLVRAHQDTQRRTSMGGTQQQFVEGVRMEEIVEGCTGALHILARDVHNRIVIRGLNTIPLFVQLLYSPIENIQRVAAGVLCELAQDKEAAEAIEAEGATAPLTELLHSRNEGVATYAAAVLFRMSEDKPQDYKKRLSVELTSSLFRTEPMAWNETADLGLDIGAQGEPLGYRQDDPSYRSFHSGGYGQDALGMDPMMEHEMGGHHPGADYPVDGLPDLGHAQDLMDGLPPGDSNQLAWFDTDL
In words: Fluorescence polarization IC50 (beta-catenin / 5FAM-TCF4 10-53 competition). In kind it is binding. A general note: In fluorescence polarisation assays a small probe gives low polarisation when free and higher when bound to something large.

The nature of data set [2]: CHI Log D procedure. Particulars: for CHI Log D: pH 7.4; for chromatographic logD: pH 7.4, CHI Log D. In kind it is physicochemical.
The target of data set [3] is T2, beta-catenin/TCF4 engagement (Homo sapiens, UniProt P35222).
T2 construct: expressed in transfected cells; host or cells: HEK293
T2 sequence (P35222 1-781): T1 sequence (P35222 1-781)
The data set can be described thus: Nano-BRET target engagement assay (B-cat-Halo & TCF4-Luc in HEK293 cells). In kind it is cell-based. Particulars: for IC50: read-out: NanoBRET Abs IC50; for inhibition at 10 µM: HEK293, 10 uM, read-out: NanoBRET % inh @ 10 uM.

Setting [4] is: fluorescence polarization, beta-catenin, read-out: FP EC50.

By chromatographic logD is commonly meant a lipophilicity value derived from retention on a column. Low values mean a more hydrophilic compound, high ones a more lipophilic compound.

Take `CC(=O)N1CCC[C@]12CC=CCCCC1(CCCC=CCCCOC(=O)N3CC[C@@](C(=O)N[C@@H](Cc4ccsc4)C(=O)N[C@@H](Cc4csc5ccccc45)C(=O)N[C@@H](Cc4c[nH]cn4)C(N)=O)(C3)NC(=O)[C@H](CC(N)=O)NC(=O)[C@H](Cc3ccccc3)NC(=O)[C@H](C)NC(=O)[C@H](C)NC(=O)[C@H](CN(CC(=O)O)CC(F)(F)F)NC(=O)[C@H](CC(=O)O)NC1=O)NC(=O)[C@H](CC(C)(C)C)NC(=O)[C@H](CC(=O)O)NC2=O` (stereo partly drawn) [I-769, Ac-PL3-Asp-Npg-B5-Asp-TfeGA-Ala-Ala-Phe-Asn-PyrS2-3Thi-BztA-His-NH2]: the IC50 came out at 5 nM in data set [1] (read-out: beta-Catenin FP IC50), 13000 nM in data set [3] (Abs IC50) and 13000 nM in data set [3]. Moreover, the “CHI Log D” value in data set [2] is given as 2.307.

On to `CC(=O)N1CCC[C@]12CC=CCCCC1(CCCC=CCCCOC(=O)N3CC[C@@](C(=O)N[C@@H](Cc4ccsc4)C(=O)N[C@@H](Cc4csc5ccccc45)C(=O)N[C@@H](Cc4c[nH]cn4)C(N)=O)(C3)NC(=O)[C@H](CC(N)=O)NC(=O)[C@H](Cc3ccccc3)NC(=O)[C@H](C)NC(=O)[C@H](C)NC(=O)[C@H](CN(CC(=O)O)CC(F)(F)F)NC(=O)[C@H](CC(=O)O)NC1=O)NC(=O)[C@H](CC(C)(C)C)NC(=O)[C@H](CC(=O)O)NC2=O` (stereo partly drawn) [I-770, Ac-PL3-Asp-Npg-B5-Asp-TfeGA-Ala-Ala-Phe-Asn-PyrS2-3Thi-BztA-His-NH2], for which the IC50 in data set [1] (read-out: beta-Catenin FP IC50) worked out at 5 nM; in data set [3] (Abs IC50) it was 13700 nM; in data set [3] it was 13700 nM. The “CHI Log D” value in data set [2] was determined as 2.358.

As for `CC(=O)N1CCC[C@]12CC=CCCCC1(CCCC=CCCCOC(=O)N3CC[C@@](C(=O)N[C@@H](Cc4ccsc4)C(=O)N[C@@H](Cc4csc5ccccc45)C(=O)N[C@@H](Cc4c[nH]cn4)C(N)=O)(C3)NC(=O)[C@H](CCC(N)=O)NC(=O)[C@H](Cc3ccccc3)NC(=O)[C@H](C)NC(=O)[C@H](C)NC(=O)[C@H](CC(=O)O)NC(=O)[C@H](CC(=O)O)NC1=O)NC(=O)[C@H](CC(C)(C)C)NC(=O)[C@H](CC(=O)O)NC2=O` (stereo partly drawn) [I-771, Ac-PL3-Asp-Npg-B5-Asp-Asp-Ala-Ala-Phe-Gln-PyrS2-3Thi-BztA-His-NH2], the IC50 was 5 nM in data set [1] (read-out: beta-Catenin FP IC50) and 37300 nM in data set [3]. Further, the “CHI Log D” value in data set [2] is on record as 2.031.

Regarding `CC(=O)N1CCC[C@]12CC=CCCCC1(CCCC=CCCCOC(=O)N3CC[C@@](C(=O)N[C@@H](Cc4ccsc4)C(=O)N[C@@H](Cc4csc5ccccc45)C(=O)N[C@@H](Cc4c[nH]cn4)C(N)=O)(C3)NC(=O)[C@H](CCC(N)=O)NC(=O)[C@H](Cc3ccccc3)NC(=O)[C@H](C)NC(=O)[C@H](C)NC(=O)[C@H](CC(=O)O)NC(=O)[C@H](CC(=O)O)NC1=O)NC(=O)[C@H](CC(C)(C)C)NC(=O)[C@H](CC(=O)O)NC2=O` (stereo partly drawn) [I-772, Ac-PL3-Asp-Npg-B5-Asp-Asp-Ala-Ala-Phe-Gln-PyrS2-3Thi-BztA-His-NH2], the IC50 in data set [1] (read-out: FP EC50) was 7 nM; in data set [1] (read-out: beta-Catenin FP IC50) it was 7 nM; in data set [3] it was over 20000 nM. Moreover, the “CHI Log D” value in data set [2] was 2.069.

For the compound `CC(=O)N1CCC[C@]12CC=CCCCC1(CCCC=CCCCOC(=O)N3CC[C@@](C(=O)N[C@@H](Cc4ccsc4)C(=O)N[C@@H](Cc4cn(C)c5ccccc45)C(=O)N[C@@H](Cc4c[nH]cn4)C(N)=O)(C3)NC(=O)[C@H](CC(N)=O)NC(=O)[C@H](Cc3ccccc3)NC(=O)[C@H](C)NC(=O)[C@H](C)NC(=O)[C@H](CC(=O)O)NC(=O)[C@H](CC(=O)O)NC1=O)NC(=O)[C@H](CC(C)(C)C)NC(=O)[C@H](CC(=O)O)NC2=O` (stereo partly drawn) [I-799, Ac-PL3-Asp-Npg-B5-Asp-Asp-Ala-Ala-Phe-Asn-PyrS2-3Thi-1MeW-His-NH2], in data set [1] (read-out: beta-Catenin FP IC50), the IC50 turned out to be 92 nM. The same compound yielded a chromatographic logD in data set [2] of 2.06. Moreover, the inhibition at 10 µM in data set [3] turned out to be 0.9%.

Take `CC(=O)N1CCC[C@]12CC=CCCCC1(CCCC=CCCCOC(=O)N3CC[C@@](C(=O)N[C@@H](Cc4ccsc4)C(=O)N[C@@H](Cc4c[nH]c5ccc(F)cc45)C(=O)N[C@@H](Cc4c[nH]cn4)C(N)=O)(C3)NC(=O)[C@H](CC(N)=O)NC(=O)[C@H](Cc3ccccc3)NC(=O)[C@H](C)NC(=O)[C@H](C)NC(=O)[C@H](CC(=O)O)NC(=O)[C@H](CC(=O)O)NC1=O)NC(=O)[C@H](CC(C)(C)C)NC(=O)[C@H](CC(=O)O)NC2=O` (stereo partly drawn) [I-800, Ac-PL3-Asp-Npg-B5-Asp-Asp-Ala-Ala-Phe-Asn-PyrS2-3Thi-5FW-His-NH2]: the IC50 in data set [1] (read-out: beta-Catenin FP IC50) was found to be 79 nM. This compound gave a chromatographic logD in data set [2] of 2. The inhibition at 10 µM in data set [3] came out at 8.1%.

For the compound `CC(=O)N1CCC[C@]12CC=CCCCC1(CCCC=CCCCCOC(=O)N3CC[C@@](C(=O)N[C@@H](Cc4ccsc4)C(=O)N[C@@H](Cc4csc5ccccc45)C(=O)N[C@@H](CCC(N)=O)C(=O)N[C@@H](C)C(N)=O)(C3)NC(=O)[C@H](CC(N)=O)NC(=O)[C@H](Cc3ccccc3)NC(=O)[C@H](C)NC(=O)[C@H](C)NC(=O)[C@H](CC(=O)O)NC(=O)[C@H](CC(=O)O)NC1=O)NC(=O)[C@H](CC(C)(C)C)NC(=O)[C@H](CC(=O)O)NC2=O` (stereo partly drawn) [I-825, Ac-PL3-Asp-Npg-B5-Asp-Asp-Ala-Ala-Phe-Asn-PyrS3-3Thi-BztA-Gln-Ala-NH2], the IC50 in data set [1] (setting [4]) amounted to 15 nM; in data set [1] (read-out: beta-Catenin FP IC50) it was 15 nM; in data set [3], 27500 nM. Also, the “CHI Log D” value in data set [2] was 2.028.

Take `CC(=O)N1CCC[C@]12CC=CCCCC1(CCCC=CCCCCOC(=O)N3CC[C@@](C(=O)N[C@@H](Cc4ccsc4)C(=O)N[C@@H](Cc4csc5ccccc45)C(=O)N[C@@H](Cc4c[nH]cn4)C(=O)N[C@@H](C)C(N)=O)(C3)NC(=O)[C@H](CC(N)=O)NC(=O)[C@H](Cc3ccccc3)NC(=O)[C@H](C)NC(=O)[C@H](C)NC(=O)[C@H](CC(=O)O)NC(=O)[C@H](CC(=O)O)NC1=O)NC(=O)[C@H](CC(C)(C)C)NC(=O)[C@H](CC(=O)O)NC2=O` (stereo partly drawn) [I-827, Ac-PL3-Asp-Npg-B5-Asp-Asp-Ala-Ala-Phe-Asn-PyrS3-3Thi-BztA-His-Ala-NH2]: the IC50 in data set [1] (setting [4]) is 13 nM; in data set [1] (read-out: beta-Catenin FP IC50) it was 13 nM; in data set [3], over 20000 nM. Further, the “CHI Log D” value in data set [2] is reported as 2.1.

`CC(=O)N1CCC[C@]12CC=CCCCC1(CCCC=CCCCCOC(=O)N3CC[C@@](C(=O)N[C@@H](Cc4ccsc4)C(=O)N[C@@H](Cc4csc5ccccc45)C(=O)N[C@@H](CCC(N)=O)C(=O)N[C@H](C)C(N)=O)(C3)NC(=O)[C@H](CC(N)=O)NC(=O)[C@H](Cc3ccccc3)NC(=O)[C@H](C)NC(=O)[C@H](C)NC(=O)[C@H](CC(=O)O)NC(=O)[C@H](CC(=O)O)NC1=O)NC(=O)[C@H](CC(C)(C)C)NC(=O)[C@H](CC(=O)O)NC2=O` (stereo partly drawn) [I-830, Ac-PL3-Asp-Npg-B5-Asp-Asp-Ala-Ala-Phe-Asn-PyrS3-3Thi-BztA-Gln-dAla-NH2]: the IC50 came out at 15 nM in data set [1] (setting [4]), 15 nM in data set [1] (read-out: beta-Catenin FP IC50) and 38500 nM in data set [3]. In data set [2], the “CHI Log D” value is reported as 2.042.

On to `CC(=O)N1CCC[C@]12CC=CCCCC1(CCCC=CCCCCOC(=O)N3CC[C@@](C(=O)N[C@@H](Cc4ccsc4)C(=O)N[C@@H](Cc4csc5ccccc45)C(=O)N[C@@H](Cc4c[nH]cn4)C(=O)N[C@H](C)C(N)=O)(C3)NC(=O)[C@H](CC(N)=O)NC(=O)[C@H](Cc3ccccc3)NC(=O)[C@H](C)NC(=O)[C@H](C)NC(=O)[C@H](CC(=O)O)NC(=O)[C@H](CC(=O)O)NC1=O)NC(=O)[C@H](CC(C)(C)C)NC(=O)[C@H](CC(=O)O)NC2=O` (stereo partly drawn) [I-832, Ac-PL3-Asp-Npg-B5-Asp-Asp-Ala-Ala-Phe-Asn-PyrS3-3Thi-BztA-His-dAla-NH2], for which the results for the IC50 in data set [1] (setting [4]), in data set [1] (read-out: beta-Catenin FP IC50) and in data set [3] were 9 nM, 9 nM and 39800 nM, respectively. Moreover, in data set [2], the “CHI Log D” value stood at 2.095.

In the case of `CC(=O)N1CCC[C@]12CC=CCCCC1(CCCC=CCCCCOC(=O)N3CC[C@@](C(=O)N[C@@H](Cc4ccsc4)C(=O)N[C@@H](Cc4csc5ccccc45)C(=O)N[C@@H](CC(N)=O)C(=O)N[C@H](C)C(N)=O)(C3)NC(=O)[C@H](CC(N)=O)NC(=O)[C@H](Cc3ccccc3)NC(=O)[C@H](C)NC(=O)[C@H](C)NC(=O)[C@H](CC(=O)O)NC(=O)[C@H](CC(=O)O)NC1=O)NC(=O)[C@H](CC(C)(C)C)NC(=O)[C@H](CC(=O)O)NC2=O` (stereo partly drawn) [I-834, Ac-PL3-Asp-Npg-B5-Asp-Asp-Ala-Ala-Phe-Asn-PyrS3-3Thi-BztA-Asn-dAla-NH2], the IC50 worked out at 14 nM in data set [1] (setting [4]), 14 nM in data set [1] (read-out: beta-Catenin FP IC50) and 33700 nM in data set [3]. The “CHI Log D” value in data set [2] was 2.08.
